Laboratory results as given in patent US9486457B2, “Use of cinnabarinic acid as a modulator of immune responses in autoimmune disorders” (The Regents of the University of California, priority 2010, dated 2016).
“Also recorded” adds a separate entry of the source.

What was measured:
[1] = system: zebrafish embryos; assay: CYP1A1 induction in zebrafish embryos; type: in vivo; conditions: within 72 hours
Source text: (§1) 3-HAA is particularly susceptible to oxidation, resulting in the formation of the metabolite cinnabarinic acid (CA) through dimerization of two molecules of 3-HAA (24). […] In addition, CA has potent effects on thymocyte maturation (25) not unlike what has been observed in rodents treated with TCDD (26-28) or in transgenic mice with a constitutively active AHR (29). To test the hypothesis that CA is an AHR ligand, we obtained pure CA, prepared through a chemical synthesis using 3-HAA as a starting material and purified by HPLC, and analyzed its ability to bind to and activate the AHR in vitro.

[2] = system: experimental allergic encephalomyelitis (EAE); assay: Experimental allergic/autoimmune encephalomyelitis (EAE) induced with MOG peptide and CFA; type: in vivo, C57BL/6 mice; conditions: for development / induction of EAE (disease occurrence and severity): single dose (1 mg/mouse) at Day 0 within the emulsion containing MOG peptide and adjuvant, compared to DMSO
Experimental: FIGS. 10A and 10B illustrate the number or frequency of cytokine producing cells within the CNS (or spleen) of mice treated at day 0 with 1 dose of CA (1 mg/mouse) or vehicle (DMSO) within the emulsion contain MOG peptide and adjuvant. Representative flow plots are shown at the bottom of the figures. EAE survival curve for 10 animals treated with CA or with DMSO showing that 1/10 animals treated with CA gets sick whereas 9/10 animals treated with vehicle (DMSO) are sick at the indicated timepoint.
However, TCDD and FICZ are both known AHR agonists, like CA, whereas 3,4 DAA appears to act as an antagonist. Therefore the regulation of the Th17/Th22/Treg cell differentiation pathways at the level of the AHR is likely to be more complex than merely reflecting the presence of an agonistic or antagonistic ligand. To assess whether CA was protective in EAE we performed a series of experiments in which CA was administered in a single dose (1 mg/mouse) contained within the emulsion used to induce disease.

[3] = target: T1, human AHR protein (Homo sapiens, UniProt P35869); assay: Displacement of TCDD binding to in vitro translated human AHR protein; conditions: cell-free
T1 sequence (P35869 11-848): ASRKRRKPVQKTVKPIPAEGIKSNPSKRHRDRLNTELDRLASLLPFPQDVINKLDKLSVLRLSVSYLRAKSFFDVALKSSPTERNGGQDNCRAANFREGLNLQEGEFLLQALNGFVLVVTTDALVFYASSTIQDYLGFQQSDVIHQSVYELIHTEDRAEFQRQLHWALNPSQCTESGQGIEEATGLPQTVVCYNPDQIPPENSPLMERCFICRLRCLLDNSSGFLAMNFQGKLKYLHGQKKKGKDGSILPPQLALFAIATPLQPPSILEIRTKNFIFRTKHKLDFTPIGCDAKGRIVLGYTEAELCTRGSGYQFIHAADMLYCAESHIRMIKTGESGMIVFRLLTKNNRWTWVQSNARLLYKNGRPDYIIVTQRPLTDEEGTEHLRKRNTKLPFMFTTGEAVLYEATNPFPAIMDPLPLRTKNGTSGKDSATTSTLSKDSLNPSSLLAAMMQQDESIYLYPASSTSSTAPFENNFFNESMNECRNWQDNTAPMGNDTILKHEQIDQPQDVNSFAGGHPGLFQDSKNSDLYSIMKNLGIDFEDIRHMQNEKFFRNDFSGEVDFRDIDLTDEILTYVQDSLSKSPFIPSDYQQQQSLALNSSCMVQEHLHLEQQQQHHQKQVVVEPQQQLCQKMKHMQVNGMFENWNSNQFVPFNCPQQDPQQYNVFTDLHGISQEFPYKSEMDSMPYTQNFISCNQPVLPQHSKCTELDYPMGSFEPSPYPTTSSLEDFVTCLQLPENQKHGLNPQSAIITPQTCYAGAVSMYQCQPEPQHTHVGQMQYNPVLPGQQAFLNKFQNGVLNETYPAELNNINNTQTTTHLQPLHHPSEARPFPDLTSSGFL
Source text: (§2) We performed a precursory screen of all tryptophan metabolites including both 3-HKA and 3-HAA to bind to and act as agonists or antagonists of the AHR using two separate assays. First we examined the ability of 3-HKyn, 3-HAA, and PA to displace TCDD binding to the human AHR protein in vitro (20). […] We also measured AHR activation using a mouse hepatoma cell line (H1G1) that stably expresses a green fluorescent protein (GFP) reporter construct downstream of a series of dioxin responsive elements (FIG. 7A) (21).

[4] = system: human naïve CD4+ T cells; assay: IL-22 induction in cultured human naïve CD4+ T cells stimulated with anti-CD3/anti-CD28 under Th17 polarizing conditions; type: cell-based; conditions: CA 25 μM in FIG. 8D
Source text: This is AHR dependent as inclusion of an AHR antagonist fully abrogated effect.
FIG. 8: CA is an endogenous AhR agonist generated by oxidative dimerization of 3-HAA. (A) An alternative pathway of 3-HAA metabolism leads to the generation of CA either by non-enzymatic (oxidation) or enzymatic (laccase, ceruloplasmin) processes. CA is structurally similar to the synthetic AhR ligand TCDD. […] Data are representative of three similar experiments.

[5] = system: naïve (CD45RA+CCR7+CD95−CD25−) CD4+ T cells; assay: Foxp3 induction in stimulated naïve CD4+ T cells; type: cell-based, human; conditions: stimulated naïve CD4+ T cells in vitro
Source text: FIG. 9: The synthetic 3-HAA analogue 3,4 DAA (Tranilast) is an AhR antagonist and promotes the induction of Foxp3 by stimulated CD4+ T cells. (A) 3,4 DAA shares some structural similarities to 3-HAA (highlighted region).
Therefore we asked whether T cells treated with 3,4 DAA might be prompted to differentiate into Treg cells through upregulation of the transcription factor Foxp3 (26).

[6] = target: T2, AHR (Mus musculus, UniProt P30561); assay: AHR-responsive (dioxin responsive element) GFP reporter assay in H1G1 mouse hepatoma cells; type: cell-based; conditions: agonist mode
T2 construct: murine hepatoma cell line stably transfected with an AhR-responsive (AhR-eGFP) reporter construct; endogenous in cells
T2 sequence (P30561 10-848): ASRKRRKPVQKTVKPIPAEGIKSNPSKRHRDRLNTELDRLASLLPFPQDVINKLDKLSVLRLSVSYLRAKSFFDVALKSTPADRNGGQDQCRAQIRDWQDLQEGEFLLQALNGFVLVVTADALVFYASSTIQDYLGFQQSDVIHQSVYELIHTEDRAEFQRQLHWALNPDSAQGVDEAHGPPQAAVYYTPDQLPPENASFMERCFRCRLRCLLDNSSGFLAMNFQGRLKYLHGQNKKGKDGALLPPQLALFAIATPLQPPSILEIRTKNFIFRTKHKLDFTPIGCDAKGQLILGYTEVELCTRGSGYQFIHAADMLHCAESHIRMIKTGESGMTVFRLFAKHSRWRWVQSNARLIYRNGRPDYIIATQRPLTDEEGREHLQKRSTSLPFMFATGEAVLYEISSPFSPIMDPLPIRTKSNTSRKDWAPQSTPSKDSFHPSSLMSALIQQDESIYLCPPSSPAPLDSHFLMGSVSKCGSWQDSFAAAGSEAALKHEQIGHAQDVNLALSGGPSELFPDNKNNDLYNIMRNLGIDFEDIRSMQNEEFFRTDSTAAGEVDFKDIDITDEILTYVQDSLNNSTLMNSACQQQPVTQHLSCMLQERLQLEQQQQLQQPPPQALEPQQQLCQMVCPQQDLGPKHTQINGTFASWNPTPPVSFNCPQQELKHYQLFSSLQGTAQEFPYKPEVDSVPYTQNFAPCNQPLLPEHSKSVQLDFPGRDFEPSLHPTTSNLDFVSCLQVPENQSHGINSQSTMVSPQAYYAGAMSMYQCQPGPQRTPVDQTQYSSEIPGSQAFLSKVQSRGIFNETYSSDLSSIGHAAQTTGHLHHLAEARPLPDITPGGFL
Source text: as §2

[7] = system: lymphocytes; assay: CYP1A1 transcription within lymphocytes; type: cell-based
Source text: as §1

[8] = single dose 1 mg/mouse in the emulsion

SMILES: Nc1c(C(=O)O)c2nc3c(C(=O)O)cccc3oc-2cc1=O [Cinnabarinic Acid, cinnabarinic acid]
- CYP1A1 induction [1]: potent induction of CYP1A1 in zebrafish embryos
- animals that get sick (EAE survival curve) ([2]; 10 animals, 1 dose of CA (1 mg/mouse) at day 0, 9/10 with vehicle (DMSO)): 1/10
- Foxp3+ Treg cells in the CNS [2, 8]: but not in the CNS
- Foxp3+ Treg cells in the spleen [2, 8]: slight, but significant, increase in Foxp3+ Treg cells in the spleen
- frequency and number of Th17 and Th22 cells in the spleen [2, 8]: increase in the frequency and number of Th17 and Th22 cells in the spleen
- frequency of infiltrating Th17 and Th22 cells in the CNS [2, 8]: decrease in the frequency of infiltrating Th17 and Th22 cells
- number of infiltrating T cells in the central nervous system (CNS) [2, 8]: greatly reduced number of infiltrating T cells in the central nervous system (CNS)
- development / induction of EAE (disease occurrence and severity) [2]: inhibits the development of experimental allergic encephalomyelitis (EAE); also recorded: inhibits the induction of EAE
- development / induction of EAE (disease occurrence and severity) ([2]; listed as CA): suppress autoimmunity in a mouse model of multiple sclerosis; also recorded: significant reduction of disease occurrence and severity; also recorded: almost completely block the development of EAE
- development / induction of EAE (disease occurrence and severity) ([2]; listed as Cinnabaric Acid): inhibits the induction of EAE
- proliferation of splenocytes on restimulation with MOG peptide ([2]; splenocytes from CA treated mice): significantly greater amount of proliferation
- displacement / inhibition of TCDD binding to human AHR [3]: displaces Dioxin (TCDD)
- displacement / inhibition of TCDD binding to human AHR ([3]; listed as CA): able to bind to and activate the AHR at much lower concentrations than that observed for 3-HAA; also recorded: dose-dependent inhibition of TCDD binding
- IL-22 induction [4]: potently induces IL-22
- IL-22 induction ([4]; listed as CA): stimulate the differentiation of a newly defined subset of human T cells that produce the cytokine IL-22; also recorded: promoted IL-22 production more strongly than any other tryptophan metabolite tested; also recorded: potently induces IL-22
- Foxp3 expression (frequency of CD4+Foxp3+ T cells) [5]: did not appear to promote Foxp3 upregulation
- AHR agonist activity (activation of AHR-responsive reporter) [6]: activates AHR responsive (Dioxin Responsive Elements)
- AHR agonist activity (activation of AHR-responsive reporter) ([6]; listed as CA): able to bind to and activate the AHR at much lower concentrations than that observed for 3-HAA; also recorded: potent agonist of the AhR
- CYP1A1 transcription [7]: upregulation of CYP1A1 transcription within lymphocytes
